Measured values reported in publication PMC8584173, “The Cytotoxic Effect of Copper (II) Complexes with Halogenated 1,3-Disubstituted Arylthioureas on Cancer and Bacterial Cells” (International Journal of Molecular Sciences, 2021).

Legend:
[1] = tested on: SW620 (human metastatic colon cancer); experiment: MTT cytotoxicity assay, SW620; assay type: cell-based; conditions: SW620, 72 h
Experimental: (§1) The human primary (SW480), metastatic (SW620) colon cancer, metastatic prostate cancer (PC3) and human immortal keratinocyte (HaCaT) cell lines were purchased from the American Type Culture Collection (ATCC, Rockville, USA). The cells were cultured in medium according to protocols (MEM for SW480 and SW620, RPMI 1640 for PC3 and DMEM for HaCaT cells) supplemented with 10% fetal bovine serum (FBS), penicillin (100 U/mL) and streptomycin (100 μg/mL) and cultured in 37 °C/ 5% CO2 humidified incubator. The cells were cultured until appropriate confluence was achieved (80–90%). Next, they were harvested by treatment with 0.25% trypsin (Gibco Life Technologies, USA) and used for studies.
(§2) Cells without studied compounds in medium were used as a control.
(§3) The cell viability was assessed by determination of MTT salt (3-(4,5-dimethylthiazol-2-yl)-2,5-diphenyltetrazolium bromide) conversion by mitochondrial dehydrogenase. MTT assay was performed as previously described. Experiments were repeated three times. Cell viability was presented as a percentage of MTT reduction in the treated cells versus the control cells. Number of viable cells cultured without studied compounds was assumed to be 100%. Decreased relative MTT level means decreased cell viability.

S. aureus ATCC 25923 = experiment: MIC, twofold serial microdilution; assay type: cell-based, Staphylococcus aureus; conditions: S. aureus ATCC 25923, 18 h, 35 °C
Experimental: (§4) The antimicrobial activity of the compounds was tested on Gram-positive bacteria (Staphylococcus aureus NCTC 4163, Staphylococcus aureus ATCC 25923, Staphylococcus aureus ATCC 6538, Staphylococcus aureus ATCC 29213, Staphylococcus epidermidis ATCC 12228, Staphylococcus epidermidis ATCC 35984), Gram-negative rods (Escherichia coli ATCC 10538, Escherichia coli ATCC 25922, Pseudomonas aeruginosa ATCC 15442, Pseudomonas aeruginosa ATCC 27863) and yeasts (Candida albicans ATCC 10231, Candida albicans ATCC 90028, Candida parapsilosis ATCC 22019). Hospital methicillin-resistant strains of Staphylococcus aureus and Staphylococcus epidermidis were obtained from the collection of the Department of Pharmaceutical Microbiology, Medical University of Warsaw, Poland.
(§5) Antifungal activities were assessed using Mueller–Hinton agar + 2% glucose and 0.5 µg/mL methylene blue dye medium. Sterile filter paper discs (9 mm diameter, Whatman Number 3 chromatography paper) were dripped with tested compound solutions (in dimethylsulfoxide, DMSO) to load 400 μg of a given compound per disc. Dry discs were placed on the surface of appropriate agar medium. The results (diameter of the growth inhibition zone) were read after 18 h of incubation at 35 °C. Minimal inhibitory concentration (MIC) was tested by the twofold serial microdilution method (in 96-well microtiter plates) using Mueller–Hinton broth medium (Beckton Dickinson) for bacteria or RPMI-1640 medium for Candida species, according to CLSI guidelines. The stock solution of tested agent was prepared in DMSO and diluted in sterile water. […] The final inoculum of all studied microorganisms was 10^5 CFU/ mL^−1 (colony forming units per ml). Minimal inhibitory concentrations (the lowest concentration of a tested agent that prevents visible growth of a microorganism) were read after 18 h (bacteria) or 24 h (yeasts) of incubation at 35 °C.

S. aureus ATCC 29213 = experiment: MIC, twofold serial microdilution; assay type: cell-based, Staphylococcus aureus; conditions: S. aureus ATCC 29213, 18 h, 35 °C
Experimental: as §4, §5

S. aureus NCTC 4163 = experiment: MIC, twofold serial microdilution; assay type: cell-based, Staphylococcus aureus; conditions: S. aureus NCTC 4163, 18 h, 35 °C
Experimental: as §4, §5

S. aureus ATCC 6538 = experiment: MIC, twofold serial microdilution; assay type: cell-based, Staphylococcus aureus; conditions: S. aureus ATCC 6538, 18 h, 35 °C
Experimental: as §4, §5

E. coli NCTC 10538 = experiment: MIC, twofold serial microdilution; assay type: cell-based, Escherichia coli; conditions: E. coli NCTC 10538, 18 h, 35 °C
Experimental: as §4, §5

E. coli ATCC 25922 = experiment: MIC, twofold serial microdilution; assay type: cell-based, Escherichia coli; conditions: E. coli ATCC 25922, 18 h, 35 °C
Experimental: as §4, §5

[2] = tested on: Bacillus subtilis M45 (rec−); experiment: Bacillus subtilis rec-assay, M45; assay type: cell-based; conditions: B. subtilis M45; 256 µg per disc (NOQ 2 µg per disc)
Experimental: DNA-damaging activity of compounds was tested by rec-assay using two genetically modified Bacillus subtilis strains: M45 (rec^−) and H17 (rec^+). Tested compounds were dissolved in DMSO, and 10 µL of each solution was dripped onto sterile cotton discs (Rotilabo) to load 256 µg of a given compound per 9 mm disc. Discs were placed on the surface nutrient agar plates (Difco), inoculated with 100 µL of bacterial overnight culture and incubated […] at 35 °C. After incubation, the growth inhibition zones were measured. […] Results of the genotoxicity test were estimated after 18 h of incubation at 35 °C by comparing the diameter of the inhibition zone on the B. subtilis M45 (rec^−) strain with that on the B. subtilis H17 (rec^+) strain.

[3] = tested on: PC3 (human metastatic prostate cancer); experiment: MTT cytotoxicity assay, PC3; assay type: cell-based
Experimental: as §1, §2
as §3, with “viability. Thiourea complexes with the highest cytotoxic potential assessed by MTT determination (with the lowest IC50) were chosen for subsequent assessments of cytotoxicity mechanisms.” for “viability.”

S. epidermidis 435 = experiment: MIC, hospital MRSE strain; assay type: cell-based, Staphylococcus epidermidis; conditions: hospital MRSE S. epidermidis 435
How it was run: (§6)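 MRSE hospital isolates, reference staphylococci and Candida were tested by CLSI broth microdilution at 10^5 CFU/mL, using Mueller–Hinton or RPMI-1640 medium respectively, and incubated at 35 °C for 18 h or 24 h.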

S. epidermidis 469 = experiment: MIC, hospital MRSE strain; assay type: cell-based, Staphylococcus epidermidis; conditions: hospital MRSE S. epidermidis 469
How it was run: as §6

S. epidermidis 437 = experiment: MIC, hospital MRSE strain; assay type: cell-based, Staphylococcus epidermidis; conditions: hospital MRSE S. epidermidis 437
How it was run: as §6

S. epidermidis 471 = experiment: MIC, hospital MRSE strain; assay type: cell-based, Staphylococcus epidermidis; conditions: hospital MRSE S. epidermidis 471
How it was run: as §6

S. epidermidis 424 = experiment: MIC, hospital MRSE strain; assay type: cell-based, Staphylococcus epidermidis; conditions: hospital MRSE S. epidermidis 424
How it was run: as §6

S. epidermidis 436 = experiment: MIC, hospital MRSE strain; assay type: cell-based, Staphylococcus epidermidis; conditions: hospital MRSE S. epidermidis 436
How it was run: as §6

S. epidermidis 438 = experiment: MIC, hospital MRSE strain; assay type: cell-based, Staphylococcus epidermidis; conditions: hospital MRSE S. epidermidis 438
How it was run: as §6

**Q.** Which IC50 [1] does the source give for O=[N+]([O-])c1cc([N+]2=C(Nc3ccc(I)cc3)[S][Cu-2]23[S]C(Nc2ccc(I)cc2)=[N+]3c2ccc(Cl)c([N+](=O)[O-])c2)ccc1Cl [Compound 8, Copper (II) complex with 1-(4-iodophenyl)-3-(4-chloro-3-nitrophenyl)thiourea] here?
**A.** Its IC50 is 17.8 ± 1.3 µM.

**Q.** What about the MIC (S. aureus ATCC 25923) of the same compound?
**A.** The MIC was 4 µg/mL.

**Q.** What about the MIC (S. aureus ATCC 29213) of the same compound?
**A.** Its MIC is 4 µg/mL.

**Q.** And the MIC (S. aureus NCTC 4163)?
**A.** The MIC was 4 µg/mL.

**Q.** And the MIC (S. aureus ATCC 6538)?
**A.** Its MIC is 4 µg/mL.

**Q.** And the MIC (E. coli NCTC 10538)?
**A.** The MIC was 128 µg/mL.

**Q.** And the MIC (E. coli ATCC 25922)?
**A.** Its MIC is 128 µg/mL.

**Q.** And the inhibition zone diameter [2]?
**A.** The inhibition zone diameter was 14 mm.

**Q.** What about the IC50 ([3]; PC3, 72 h, MTT) of the same compound?
**A.** Its IC50 is 4.3 ± 0.5 µM.

**Q.** What about the “fold more active than cisplatin” value ([3]; PC3 cell lines) of the same compound?
**A.** Its value is 1.2–3.1 fold.

**Q.** What about the MIC (S. epidermidis 435) of the same compound?
**A.** The MIC was 8 µg/mL.

**Q.** And the MIC (S. epidermidis 469)?
**A.** The MIC was 8 µg/mL.

**Q.** What about the MIC (S. epidermidis 437) of the same compound?
**A.** Its MIC is 8 µg/mL.

**Q.** And the MIC (S. epidermidis 471)?
**A.** The MIC was 8 µg/mL.

**Q.** What about the MIC (S. epidermidis 424) of the same compound?
**A.** Its MIC is 8 µg/mL.

**Q.** What about the MIC (S. epidermidis 436) of the same compound?
**A.** Its MIC is 8 µg/mL.

**Q.** And the MIC (S. epidermidis 438)?
**A.** The MIC was 8 µg/mL.
